Source: patent EP0035868A1, “Bicyclic compounds, their production and use” (Takeda Chemical Industries, Ltd., priority 1980, dated 1981)

Experiments:
[1] = system: Hypertensive Activity of Angiotensin I; test: Effect against hypertensive activity of angiotensin I in rats, oral administration; assay type: in vivo, Male rats (Sprague-Dawley); conditions: 13.8 µM/kg orally, angiotensin I 300 ng/kg i.v., corrected by angiotensin II reaction
Description: Male rats (Sprague-Dawley) weighing 250 g to 350 g which were fed under free access to drinking water and feeds were used as experimental animals. The rats were anesthetized with intraperitoneal administration of pentobarbital sodium (50 mg/kg) on the day before the test day and a polyethylene tube was inserted into each of the femoral artery for measurement of blood pressure and the femoral vein for injection of angiotensin I and II, and then the tubes were fixed.
On the test day, an average blood pressure in the control phase was recorded on an electric hemodynamometer (MP-4T model manufactured by Nippon Koden, Japan) and thereafter angiotensin I and then angiotensin II were injected through the femoral vein at a dose of 300 ng/kg and 100 ng/kg respectively, to measure the hypertensive activity. Then, 13.8 µM/kg of the compound of this invention was administered orally as an aqueous solution or an aqueous gum arabic suspension, and 20, 60 and 120 minutes after the administration, angiotensin I and II were injected repeatedly to trace hypertensive reactions. In calculating the percent inhibition to the hypertensive acitivity of angiotensin I, the-percent inhibitory value was corrected based on the variation with time in the hypertensive reaction by angiotensin II.

[2] = molecular target: T1, ACE (angiotensin I converting enzyme) (Oryctolagus cuniculus, UniProt P12822); test: Inhibition of angiotensin I converting enzyme (HHL substrate, modified Cushman method); assay type: biochemical; conditions: 37°C, one hour, read-out: Inhibitory Activity on ACE (%); for inhibition at 1 µM: Concentration 1 μM; for inhibition at 10 µM: Concentration 10 μM
T1 sequence (P12822 34-1310): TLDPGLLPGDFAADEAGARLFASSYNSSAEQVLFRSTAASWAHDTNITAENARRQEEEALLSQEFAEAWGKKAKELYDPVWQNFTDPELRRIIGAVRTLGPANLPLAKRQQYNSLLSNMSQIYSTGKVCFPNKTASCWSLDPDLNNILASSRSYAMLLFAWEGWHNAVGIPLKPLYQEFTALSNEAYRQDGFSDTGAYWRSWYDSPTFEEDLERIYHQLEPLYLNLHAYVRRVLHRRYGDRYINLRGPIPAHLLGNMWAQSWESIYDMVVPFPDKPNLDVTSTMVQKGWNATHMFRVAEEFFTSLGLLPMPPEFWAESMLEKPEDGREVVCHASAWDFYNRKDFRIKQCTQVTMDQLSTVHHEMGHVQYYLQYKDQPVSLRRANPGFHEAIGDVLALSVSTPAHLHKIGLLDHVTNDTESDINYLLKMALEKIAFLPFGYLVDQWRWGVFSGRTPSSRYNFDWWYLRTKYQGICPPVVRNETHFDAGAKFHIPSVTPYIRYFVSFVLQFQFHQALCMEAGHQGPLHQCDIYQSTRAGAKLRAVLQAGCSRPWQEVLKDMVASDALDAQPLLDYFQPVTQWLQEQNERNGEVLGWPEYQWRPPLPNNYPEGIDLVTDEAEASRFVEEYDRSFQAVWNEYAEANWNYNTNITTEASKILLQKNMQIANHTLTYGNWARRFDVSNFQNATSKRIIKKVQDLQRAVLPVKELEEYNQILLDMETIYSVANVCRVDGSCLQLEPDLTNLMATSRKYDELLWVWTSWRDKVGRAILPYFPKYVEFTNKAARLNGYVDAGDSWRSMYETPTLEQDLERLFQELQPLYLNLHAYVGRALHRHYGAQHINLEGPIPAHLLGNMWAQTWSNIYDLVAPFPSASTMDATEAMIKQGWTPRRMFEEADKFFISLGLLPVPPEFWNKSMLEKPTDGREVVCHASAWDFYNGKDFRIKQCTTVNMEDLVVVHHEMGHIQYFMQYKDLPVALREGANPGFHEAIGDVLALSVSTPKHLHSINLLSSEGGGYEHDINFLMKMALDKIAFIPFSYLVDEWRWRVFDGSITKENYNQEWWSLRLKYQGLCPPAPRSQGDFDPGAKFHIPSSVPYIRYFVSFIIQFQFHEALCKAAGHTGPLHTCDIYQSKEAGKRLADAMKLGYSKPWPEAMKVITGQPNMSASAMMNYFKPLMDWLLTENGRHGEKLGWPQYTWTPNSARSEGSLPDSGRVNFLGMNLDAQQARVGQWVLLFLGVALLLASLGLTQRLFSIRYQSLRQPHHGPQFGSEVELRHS
Description: The experiment was conducted in accordance with a modification of the method described by Cushman et al. [Biochemical Pharmacology, Vol. 20, pl637(1971)].
That is, using hippuryl-L-histidyl-L-leucine(HHL) as the substrate, the ACE (angiotensin I converting enzyme) inhibitory activity was determined in terms of percent inhibition on the amount of hippuric acid produced by ACE when the present compound was added. A solution of the compound of the present invention dissolved in a 0.02 to 2% dimethyl sulfoxide-500 mM potassium phosphate buffer solution (pH 8.3, containing 300 mM sodium chloride) was added to 100 µl of ACE (protein concentration, 20 mg/ml) and 100 µl of 1.25 mM HHL. In this experiment, a potassium phosphate buffer solution containing dimethyl sulfoxide at a concentration equal to that of the test solution was used as a control. After incubating the solution at 37°C for one hour, 150 µl of 1N hydrochloric acid was added to the solution to terminate the reaction. After 1 ml of ethyl acetate was added, the solution was centrifuged at 3000 r.p.m. for 10 minutes. A 0.5 ml aliquot was separated from the ethyl acetate layer and dried at a temperature below 50°C under nitrogen gas streams. The residue was mixed with 5 ml of 1M aqueous sodium chloride and the mixture was subjected to colorimetry at a wavelength of 228 nm.

inhibition at 1 µM [2] [%] | inhibition at 10 µM [2] [%] | SMILES | Percent Inhibition (%) against Hypertensive Reaction by Angiotensin I ([1]; After 20 min.) [%] | Percent Inhibition (%) against Hypertensive Reaction by Angiotensin I ([1]; After 60 min.) [%] | Percent Inhibition (%) against Hypertensive Reaction by Angiotensin I ([1]; After 120 min.) [%]
 |  | COc1ccc2c(c1)C(N(CC(=O)O)C(=O)C(C)CSC(C)=O)CC2 (stereo not drawn) [Example 1, N-(3-acetylthio-2-methylpropionyl)-N-(6-methoxy-l-indanyl)-glycine] | 96 | 94 | 91
 |  | CC(=O)SCC(C)C(=O)N(CC(=O)O)C1CCc2ccccc21 (centres unmarked) [Example 3] | 95 | 90 | 83
45 | 88 | CC(=O)SCC(C)C(=O)N(CC(=O)O)C1CCc2cc(O)ccc21 (centres unmarked) [Example 6] |  |  | 
 |  | COc1cc2c(cc1OC)C(N(CC(=O)O)C(=O)C(C)CSC(C)=O)CC2 (centres unmarked) [Example 8, N-(3-Acetylthio-2-methylpropionyl)-N-(5,6-dimethoxy-1-indanyl)glycine] | 86 | 94 | 91
 |  | CC(=O)SCC(C)C(=O)N(CC(=O)O)C1CCc2cc3c(cc21)OCO3 (centres unmarked) [Example 9, N-(3-acetylthio-2-methylpropionyl)-N-(5,6-methylenedioxy-I-indanyl)glycine] | 81 | 78 | 59
 |  | COc1ccc2c(c1OC)CCCC2N(CC(=O)O)C(=O)C(C)CSC(C)=O (centres unmarked) [Example 18] | 83 | 70 | 72
19 | 66 | CC(=O)SCC(C)C(=O)N(CC(=O)O)C1CCOc2ccc(Cl)cc21 (centres unmarked) [Example 21] |  |  | 
73 | 95 | CC(=O)SCC(C)C(=O)N(CC(=O)O)C1CCc2ccccc2C1 (centres unmarked) [Example 32, N-(3-acetylthio-2-methylpropionyl)-N-(1,2,3,4-tetrahydro-2-naphthyl)glycine] |  |  | 
 |  | CC(=O)SCC(C)C(=O)N(CC(=O)O)C1Cc2ccccc2C1 (centres unmarked) [Example 35, N-(3-acetylthio-2-methylpropionyl)-N-(2-indanyl)glycine] | 100 | 100 | 91
86 | 98 | C[C@H](CSC(=O)c1ccccc1)C(=O)N(CC(=O)O)C1Cc2ccccc2C1 [Example 38, N-(3-benzoylthio-2(S)-methylpropionyl)-N-(2-indanyl)glycine] |  |  | 
77 | 92 | CC(=O)SCCC(=O)N(CC(=O)O)C1Cc2ccccc2C1 [Example 40, N-(3-acetylthiopropionyl)-N-(2-indanyl) glycine] |  |  | 
 |  | COc1cc2c(cc1OC)CC(N(CC(=O)O)C(=O)C(C)CSC(C)=O)C2 (centres unmarked) [Example 41, N-(3-acetylthio-2-methylpropionyl)-N-(5,6-dimethoxy-2-indanyl)glycine] | 89 | 93 | 92
32 | 75 | COc1cc2c(cc1OC)C(N(CC(=O)O)C(=O)C(CSC(C)=O)CSC(C)=O)CC2 (centres unmarked) [Example 43, N-(3-acetylthio-2-acetylthiomethylpropionyl)-N-(5,6-dimethoxy-1-indanyl)glycine] |  |  | 
74 | 99 | COc1cc2c(cc1OC)C(N(CC(=O)O)C(=O)C(C)CS)CC2 (stereo not drawn) [Example 45, N-(3-mercapto-2-methylpropionyl)-N-(5,6-dimethoxy-l-indanyl)glycine] |  |  | 
